Laboratory results reported in patent publication US20230000840A1, “THERAPEUTIC AGENTS AND PROPHYLACTIC AGENTS FOR FUNCTIONAL GASTROINTESTINAL DISORDERS AND XEROSTOMIA” (NIPPON SHINYAKU CO., LTD., priority 2019, published 2023).

Columns and labels:
[1] = test system: anesthetized mice; assay: Measurement of secreted saliva amount in anesthetized mice; format: in vivo, mouse; details: for Amount of saliva secreted: urethane-anesthetized male ICR mice, 10 mg/kg intravenous, cotton balls weighed after 30 minutes, average ± standard error
Procedure: 8-week-aged male ICR mice (Japan SLC, Inc.) were anesthetized with urethane (1650 mg/kg, intraperitoneal administration). After about 1 hour, a test compound or a vehicle (physiological saline containing 10% DMSO (OTSUKA NORMAL SALINE, manufactured by Otsuka Pharmaceutical Factory, Inc.)) was intravenously administered at 10 mg/kg, and immediately after that, one or two absorbent cotton wool balls ([…]) (Roller Cotton (cotton ball) SS, manufactured by Nichiei Co., Ltd.) were inserted into the mouth. The difference between the weight of the absorbent cotton balls after 30 minutes from insertion and the weight of the absorbent cotton balls before insertion was defined as an amount of saliva secreted. At this time, the test compound was dissolved in DMSO and then diluted 10-fold with physiological saline. The administration volumes of the test compound and the vehicle were each set to 5 mL/kg. The experiment was carried out in three parts. The number of cases in each administration group was 3-4.

[2] = test system: ileum; assay: Magnus test: carbachol-induced contraction of isolated rat ileum; details: test compound 10 μM, then carbachol 50 nM, 100% = carbachol 1000 nM, 0% = DMSO + carbachol 50 nM, average ± standard error, read-out: Enhancement ratio P of the contraction force
Procedure: 9- to 15-week-aged SD female rats (Japan SLC, Inc.) were exsanguinated to death by amputation of carotid artery under isoflurane anesthesia. Then, the ileum was removed from each rat, and cut to a length of 2 cm while excising the mesentery and connective tissue, to prepare an intestinal sample. In a Magnus tank, this sample was immersed and suspended in 20 mL of a Krebs solution at 37° C. (118 mM NaCl, 4.7 mM KCl, 2.5 mM CaCl2, 1.2 mM MgSO4, 1.2 mM KH2PO4, 11 mM D-glucose, 20 mM NaHCO3) aerated with a mixed gas of 95% O2 and 5% CO2. Then, a load of 1 g was applied to the sample to stabilize the tension.
One end of the sample was connected to an isotonic transducer (IT-10, Medical Agent), and tension (contraction force) data was imported to a personal computer via Power Lab (registered trademark) (A&D Instruments Limited). Carbachol (Carbamylcholine Chloride, Cat. No. 036-09841, manufactured by FUJIFILM Wako Pure Chemical Industries, Ltd.) was added to the Krebs solution in the Magnus tank such that the final concentration thereof was 1000 nM, and contraction of the sample was checked. A contraction force Tb of the sample at this time was defined as 100%. Then, the Magnus tank was washed with a Krebs solution three times to wash away carbachol, and the Magnus tank was finally filled with 20 mL of a Krebs solution.
Next, dimethyl sulfoxide (DMSO, Cat. No. 13445-74, manufactured by NACALAI TESQUE, INC.) was added to the Krebs solution in the Magnus tank, then carbachol was added to the Krebs solution in the Magnus tank such that the final concentration thereof was 50 nM, and contraction of the sample was checked. A contraction force Ta of the sample at this time was defined as 0%. Then, the Magnus tank was washed with a Krebs solution three times to wash away carbachol and DMSO, and the Magnus tank was finally filled with 20 mL of a Krebs solution. Next, a test compound dissolved in DMSO was added to the Krebs solution in the Magnus tank such that the final concentration thereof was 10 μM, then carbachol was added to the Krebs solution in the Magnus tank such that the final concentration thereof was 50 nM, and contraction of the sample was checked.
As described above, the contraction force Tb of the sample when carbachol was added at a final concentration of 1000 nM was defined as 100%, and the contraction force Ta of the sample when carbachol was added at a final concentration of 50 nM under the condition that DMSO was added first instead of the test compound was defined as 0%. The contraction force of the sample when carbachol was added at a final concentration of 50 nM under the condition that the test compound was added first at a final concentration of 10 μM was denoted by Tc, and an enhancement ratio P (unit: %) of the contraction force by the test compound was calculated according to the following equation (2). The increase in contraction force by the test compound was evaluated on the basis of the enhancement ratio P. The number of cases in each addition group was 3 to 7.
P=100×(Tc−Ta)/(Tb−Ta) (2)

Row | Structure (SMILES) | Amount of saliva secreted [1] [mg] | activation at 10 µM [2] [%] | Salivation promoting effect ([1]; urethane-anesthetized mice, dose not given)
1 | CCOc1ncc(-c2cc(N(C)CC3(COC)CCC3)c3[nH]c(-c4cnc(N5CCC(C(=O)O)CC5)cn4)nc3n2)cc1C(F)(F)F [Example 3, 1-(5-{5-[6-Ethoxy-5-(trifluoromethyl)pyridin-3-yl]-7-[{[1-(methoxymethyl)cyclobutyl]methyl}(methyl)amino]-1H-imidazo[4,5-b]pyridin-2-yl}pyrazin-2-yl)piperidine-4-carboxylic acid] | 27.23 ± 5.94 | 57.3 ± 7.24 | 
2 | CC[C@@H]1C(=O)OC[C@@H]1Cc1cncn1C [pilocarpine, reference compound] |  |  | exhibited a salivation promoting effect
3 | COCC1(CN(C)c2cc(-c3cnc(C4CC4)c(C(F)(F)F)c3)nc3nc(-c4cnc(N5CCN(CCC(=O)O)CC5)cn4)[nH]c23)CCCCC1 [Example 10] | 329.83 ± 49.36 | 19.3 ± 5.52 | 
4 | COC[C@@H]1CN(c2cnc(-c3nc4nc(-c5cnc(C6CC6)c(C(F)(F)F)c5)cc(N(C)CC5(COC)CCCCC5)c4[nH]3)cn2)CCN1CCC(=O)O [Example 12, 3-[(2S)-4-(5-{5-[6-Cyclopropyl-5-(trifluoromethyl)pyridin-3-yl]-7-[{[1-(methoxymethyl)cyclohexyl]methyl}(methyl)amino]-1H-imidazo[4,5-b]pyridin-2-yl}pyrazin-2-yl)-2-(methoxymethyl)piperazin-1-yl]propanoic acid] | 131.75 ± 28.63 | 49.3 ± 11 | 
5 | CCOc1cc(-c2cc(N(C)CC3(COC)CCCC3)c3[nH]c(-c4cnc(N5CCC(C(=O)O)CC5)cn4)nc3n2)cc(C(F)(F)F)n1 [Example 9, 1-(5-{5-[2-Ethoxy-6-(trifluoromethyl)pyridin-4-yl]-7-[{[1-(methoxymethyl)cyclopentyl]methyl}(methyl)amino]-1H-imidazo[4,5-b]pyridin-2-yl}pyrazin-2-yl)piperidine-4-carboxylic acid] | 34.73 ± 11.39 | 36.9 ± 6.43 | 
6 | COCC1(CN(C)c2cc(-c3cc(C4CC4)nc(C(F)(F)F)c3)nc3nc(-c4cnc(N5CCN(CCC(=O)[O-])C[C@H]5C)cn4)[nH]c23)CCCCC1.[Na+] [Example 14, Sodium 3-[(3R)-4-(5-{5-[2-cyclopropyl-6-(trifluoromethyl)pyridin-4-yl]-7-[{[1-(methoxymethyl)cyclohexyl]methyl}(methyl)amino]-1H-imidazo[4,5-b]pyridin-2-yl}pyrazin-2-yl)-3-methylpiperazin-1-yl]propanoate] | 142.70 ± 23.51 | 65.1 ± 15 | 
7 | CCOCC1(CN(C)c2cc(-c3cnc(C4CC4)c(C(F)(F)F)c3)nc3nc(-c4cnc(N5CCN(CCC(=O)[O-])C[C@H]5C)cn4)[nH]c23)CCCC1.[Na+] [Example 13, sodium 3-[(3R)-4-(5-{5-[6-cyclopropyl-5-(trifluoromethyl)pyridin-3-yl]-7-[{[1-(ethoxymethyl)cyclopentyl]methyl}(methyl)amino]-1H-imidazo [4,5-b]pyridin-2-yl}pyrazin-2-yl)-3-methylpiperazin-1-yl]propanoate] | 214.40 ± 51.06 | 17.7 ± 12.7 | 
8 | CCOc1ncc(-c2cc(N(C)CC3(COC)CCCC3)c3[nH]c(-c4ccc(N5CCC(C(=O)O)CC5)cc4F)nc3n2)cc1C(F)(F)F [Example 6, 1-(4-{5-[6-Ethoxy-5-(trifluoromethyl)pyridin-3-yl]-7-[{[1-(methoxymethyl)cyclopentyl]methyl}(methyl)amino]-1H-imidazo[4,5-b]pyridin-2-yl}-3-fluorophenyl)piperidine-4-carboxylic acid] | 11.37 ± 2.87 | 26.7 ± 5.04 | 
9 | CCOCC1(CN(C)c2cc(-c3cnc(C4CC4)c(C(F)(F)F)c3)nc3nc(-c4cnc(N5CCC(C(=O)O)CC5)cn4)[nH]c23)CCCC1 [Example 8, 1-(5-{5-[6-Cyclopropyl-5-(trifluoromethyl)pyridin-3-yl]-7-[{[1-(ethoxymethyl)cyclopentyl]methyl}(methyl)amino]-1H-imidazo[4,5-b]pyridin-2-yl}pyrazin-2-yl)piperidine-4-carboxylic acid] | 49.13 ± 11.95 | 12.4 ± 5.31 | 
10 | COCC1(CN(C)c2cc(-c3cnc(C4CC4)c(C(F)(F)F)c3)nc3nc(-c4cnc(N5CCN(CCC(=O)[O-])C[C@H]5C)cn4)[nH]c23)CCCC1.[Na+] [Example 15, Sodium 3-[(3R)-4-(5-{5-[6-cyclopropyl-5-(trifluoromethyl)pyridin-3-yl]-7-[{[1-(methoxymethyl)cyclopentyl]methyl}(methyl)amino]-1H-imidazo[4,5-b]pyridin-2-yl}pyrazin-2-yl)-3-methylpiperazin-1-yl]propanoate] | 304.98 ± 58.25 | 79.3 ± 12.2 | 
11 | CCOc1cc(-c2cc(N(C)CC3(COC)CCC3)c3[nH]c(-c4cnc(N5CCC(C(=O)O)CC5)cn4)nc3n2)cc(C(F)(F)F)n1.Cl.Cl [Example 4, 1-(5-{5-[2-Ethoxy-6-(trifluoromethyl)pyridin-4-yl]-7-[{[1-(methoxymethyl)cyclobutyl]methyl}(methyl)amino]-1H-imidazo[4,5-b]pyridin-2-yl}pyrazin-2-yl)piperidine-4-carboxylic acid dihydrochloride] | 77.35 ± 16.66 | 59.3 ± 7.17 | 
12 | CCOc1cc(-c2cc(N(C)CC(C)(C)COC)c3[nH]c(-c4cnc(N5CCC(C(=O)O)CC5)cn4)nc3n2)cc(C(F)(F)F)n1 [Example 7, 1-(5-{5-[2-Ethoxy-6-(trifluoromethyl)pyridin-4-yl]-7-[(3-methoxy-2,2-dimethylpropyl)(methyl)amino]-1H-imidazo[4,5-b]pyridin-2-yl}pyrazin-2-yl)piperidine-4-carboxylic acid] | 73.40 ± 28.54 | 25.8 ± 6.38 | 
13 | COCC1(CN(C)c2cc(-c3cc(F)cc(C(F)(F)F)c3)nc3nc(-c4cnc(N5CCN(CC(=O)O)CC5)cn4)[nH]c23)CCC1 [Example 1, [4-(5-{5-[3-Fluoro-5-(trifluoromethyl)phenyl]-7-[{[1-(methoxymethyl)cyclobutyl]methyl}(methyl)amino]-1H-imidazo[4,5-b]pyridin-2-yl}pyrazin-2-yl)piperazin-1-yl]acetic acid] | 9.63 ± 2.90 | 30.4 ± 8.34 | 
14 | COCC1(CN(C)c2cc(-c3cc(F)cc(C(F)(F)F)c3)nc3nc(-c4cnc(N5CCC(F)(C(=O)O)CC5)cn4)[nH]c23)CCC1 [Example 2, 4-Fluoro-1-(5-{5-[3-fluoro-5-(trifluoromethyl)phenyl]-7-[{[1-(methoxymethyl)cyclobutyl]methyl}(methyl)amino]-1H-imidazo[4,5-b]pyridin-2-yl}pyrazin-2-yl)piperidine-4-carboxylic acid] | 9.73 ± 3.61 | 61.5 ± 8 | 
15 | COCC1(CN(C)c2cc(-c3cc(C4CC4)nc(C(F)(F)F)c3)nc3nc(-c4cnc(N5CCC(OCC(=O)O)CC5)cn4)[nH]c23)CCCC1 [Example 5, {[1-(5-{5-[2-Cyclopropyl-6-(trifluoromethyl)pyridin-4-yl]-7-[{[1-(methoxymethyl)cyclopentyl]methyl}(methyl)amino]-1H-imidazo[4,5-b]pyridin-2-yl}pyrazin-2-yl)piperidin-4-yl]oxy}acetic acid] | 66.30 ± 15.32 | 33.5 ± 3.39 | 
